{"source": "patent US7595003B2", "about": "“On-board water treatment and management process and apparatus” (priority 2004, dated 2009)", "key": {"[1]": {"conditions": "20° C.; cited from earlier work"}, "[2]": {"tested_on": "B. subtilis var. niger endospores ATCC 9372", "experiment": "batch challenge of B. subtilis endospores in deionized buffered water, plate count", "format": "cell-based, Bacillus subtilis"}, "[3]": {"experiment": "ozone mass transport into water in acoustic reactor", "format": "physicochemical", "conditions": "high acoustic intensity (215 dB) versus low acoustic intensity (205 dB, nominally same as sparger)", "description": "Adopting the same approach as above, acoustic energy at 205 and 215 dB re 1 μPa at 75 Hz was supplied along with the ozone over the same range of concentration. The acoustic pressure signal of the sonic devices was detected with a hydrophone sensor placed in the reactor. A typical 214 dB signal is shown in the captured trace in FIG. 11. In this series of experiments with a constant 1.5 mg/L concentration, the applied power of the ozone generator was constant; i.e., it was not controlled by the feedback of the dissolved ozone concentration controller. Higher intensity of applied acoustic energy appears to correlate to an increase in ozone mass transport. Utilizing the slopes of the ozone concentration curves, one can calculate an apparent mass transfer coefficient about 40% greater for the high acoustic intensity than for the low acoustic intensity, which was nominally the same as the sparger. This effect has been noted in other applications of ozone mixing, specifically in the oxidative treatment of waste streams. Intensity of this magnitude corresponds to pressure fluctuations of over 8 psi."}, "[4]": {"tested_on": "organisms contained in the ballast water", "experiment": "batch challenge of unfortified actual ballast water", "format": "cell-based", "description": "The basic approach was evaluated with batch challenging of actual ballast water. The water came from the hold of a ship originating from Port Moin, Costa Rica. Ballast water in the ship was sampled in the Port of Philadelphia, and the biota in the samples was characterized by the Bigelow Laboratory for Ocean Sciences. About 80% of the water was taken on or exchanged in the Caribbean, while it is believed that the remaining 20% came from the port of origin. The water had been in the ballast tanks for 21 days, and total ballast capacity of the vessel was 265 cubic meters. The samples were drawn at the 73 cubic meter level.\nA challenge was made of unfortified ballast water (without B. subtilis endospores) to assess the killing of organisms contained in the ballast water. For this test, an applied ozone power of 660 watts was used with 0.8 m^3hr^−1. The samples were quenched by adding 10 ml of 1% sodium thiosulfate to the 1 L HDPE collection bottles prior to collecting the samples. A control sample without ozone treatment or quenchant was submitted along with a control containing the quenchant without treatment.\nThe treatment times for the samples were in one-minute increments from one to five minutes."}, "[5]": {"tested_on": "bacteria and fungi", "experiment": "flowing system (Phase II): culture tests for the presence of bacteria and fungi", "format": "cell-based", "design": "key to growth in TM (test medium) / growth in M (malt broth) / growth in PM (peptonemethylamine broth) / growth in P (peptone broth) / growth in BP: Bacterial growth (Bac); Phytoplankton (PHY)", "description": "Bigelow Laboratory inoculated 200 μL of sample into various media the day after the samples were collected. The flow rate, water pressure (PSI), temperature, ultrasonic treatment system (UTS) and ozone treatment values were provided by ETI. The hydrogen ion concentration (pH) and salinity values were determined at Bigelow Laboratory. Culture treatments included tests for the presence of bacteria and fungi [peptonemethylamine broth (PM), peptone broth (P), test medium (TM), malt broth (M)] and tests for the presence of phytoplankton [DY-V medium, freshwater (DYV), K medium, oceanic (K), L1+NH4, coastal (L1+NH4), black sea medium, brackish at 16 psu (Blk Sea), L1/24 medium, coastal at 24 psu (L1/24), Prov medium, coastal enriched with soil extract (Prov)]. Bacterial growth (Bac) developed in all of the bacterial test media. Phytoplankton (PHY) grew in all algal growth media (see footnotes for details).\n(§1) A summary of data is provided in Table 6, below, from a second batch of harbor water samples that were likewise examined by Bigelow Laboratory the day after they were collected. 200 μL of sample was inoculated into various media. The flow rate, water pressure (PS), temperature, ultrasonic treatment system (UTS) and ozone treatment values were provided by ETI. The hydrogen ion concentration (pH) and salinity values were determined at Bigelow Laboratory. Culture treatments included tests for the presence of bacteria and fungi [peptonemethylamine broth (PM), peptone broth (P), test medium (TM), malt broth (M)] and tests for the presence of phytoplankton [DY-V medium, freshwater (DYV), K medium, oceanic (K), L1+NH4, coastal (L1+NH4), black sea medium, brackish at 16 psu (Blk Sea), L1/24 medium, coastal at 24 psu (L1/24), Prov medium, coastal enriched with soil extract (Prov)]. Bacterial growth (Bac) developed in all of the bacterial test media. Zooflagellates (Zoo) grew in all algal growth media from inlet and strainer samples but none from the outlet samples.\nas §1, with “In table 7, below, a” for “A”, “provided” for “provided in Table 6, below,”, “all” for “all of the bacterial”, “media without ozone treatment or growth (Bac) developed” for “media. Zooflagellates (Zoo) grew”, “test” for “algal growth”, “without ozone treatment or with a flow rate over 30 gpm.” for “from inlet and strainer samples but none from the outlet samples.”\nas §1, with “In table 8, below, a” for “A”, “provided” for “provided in Table 6, below,”, “(PSI),” for “(PS),”, “Bacterial growth (Bac) developed in all of the bacterial test media. Zooflagellates (Zoo) grew in all algal growth media from inlet and strainer samples but none from the outlet samples.” left out"}, "[6]": {"tested_on": "phytoplankton", "experiment": "flowing system (Phase II): culture tests for the presence of phytoplankton", "format": "cell-based", "design": "key: Bacterial growth (Bac); Phytoplankton (PHY)", "conditions": "outlet, 125 gpm, UTS Full, ozone Full (1.0 mg/L), 8 psu; samples 3A, 4A"}, "[7]": {"tested_on": "invertebrates", "conditions": "typical applications; cited from earlier work"}, "[8]": {"tested_on": "Cryptosporidium oocysts", "conditions": "exposure for 1 minute; cited from earlier work"}, "[9]": {"conditions": "ozone power 660 watts, 0.8 m^3hr^−1, treatment 1 to 5 minutes"}, "[10]": {"conditions": "outlet, 125 gpm, UTS Full, ozone Full (1.0 mg/L), 8 psu, samples 3A, 4A"}, "[11]": {"conditions": "sample 17A: outlet, 10 gpm, UTS Full, ozone 60.0%, 7 psu"}, "[12]": {"conditions": "sample 20A: outlet, 30 gpm, UTS Full, ozone 60.0%, 7 psu"}, "[13]": {"conditions": "sample 23A: outlet, 50 gpm, UTS Full, ozone 60.0%, 7 psu"}, "[14]": {"conditions": "sample 26A: outlet, 88 gpm, UTS Full, ozone 60.0%, 7 psu"}, "[15]": {"conditions": "sample 35A: outlet, 50 gpm, UTS Full, ozone Full (1.0 mg/L), 9 psu, one of the triplicate cultures had bacteria"}, "[16]": {"conditions": "sample 36A: outlet, 50 gpm, UTS Off, ozone Full (1.0 mg/L), 9 psu"}, "[17]": {"conditions": "sample 38A: outlet, 100 gpm, UTS Full, ozone Full (1.0 mg/L), 9 psu, triplicate"}}, "note": "Several values for one entry are separate records, joined by “and”; a condition that tells them apart may be missing. Equal values may be shown once.", "data": [{"smiles": "OBr", "note": "[Hypobromous acid]", "values": [{"measurement": "pKa", "setting": "[1]", "value": 8.8}]}, {"smiles": "O=[O+][O-]", "note": "[Ozone, ozone]", "values": [{"measurement": "ozone concentration time value required to lower viable B. subtilis endospores by 99.9%", "setting": "[2]; buffered water (pH 7.8), no additional ozone demand", "value": "about 4"}, {"measurement": "log 3 ozone concentration time value", "setting": "[2]; ozone only (diffuser), no acoustic energy, deionized water", "value": "4.46 and 4.5"}, {"measurement": "log of colony forming units per mL", "setting": "[2]; ozone setpoint 1.5 mg/L, diffuser, no acoustic energy, deionized water, at 5 minutes, about 5 at 0 minutes", "value": "about 2"}, {"measurement": "log 3 ozone concentration time value", "setting": "[2]; ozone with acoustic energy, intensity increased to 215 dB, 75 Hz, deionized water", "value": 4.0}, {"measurement": "apparent mass transfer coefficient, increase", "setting": "[3]", "value": "about 40%"}, {"measurement": "culture media tests of treated samples", "setting": "[4]; one-minute treated sample, DYU medium, the only positive of thirty tests", "value": "positive growth of a green coccoid alga"}, {"measurement": "bacteria and zooflagellates in treated samples", "setting": "[4]; [9]", "value": "positive"}, {"measurement": "ciliates, dinoflagellates, nematodes in treated samples", "setting": "[4]; [9]", "value": "no ciliates, dinoflagellates, nematodes, etc., observed"}, {"measurement": "life in treated samples", "setting": "[4]; [9]", "value": "nearly devoid of life"}, {"measurement": "bacteria in outlet samples", "setting": "[5]; full ozone treatment, flow rates of 30 gpm or less, 21-day incubation", "value": "killed all bacteria"}, {"measurement": "growth in M (malt broth)", "setting": "[5]; [10]", "value": "Bac"}, {"measurement": "growth in P (peptone broth)", "setting": "[5]; [10]", "value": "Bac"}, {"measurement": "growth in PM (peptonemethylamine broth)", "setting": "[5]; [10]", "value": "Bac"}, {"measurement": "growth in TM (test medium)", "setting": "[5]; [10]", "value": "Bac"}, {"measurement": "growth in M (malt broth)", "setting": "[5]; [11]", "value": "Bac"}, {"measurement": "growth in P (peptone broth)", "setting": "[5]; [11]", "value": "Bac"}, {"measurement": "growth in PM (peptonemethylamine broth)", "setting": "[5]; [11]", "value": "Bac"}, {"measurement": "growth in TM (test medium)", "setting": "[5]; [11]", "value": "Bac"}, {"measurement": "growth in M (malt broth)", "setting": "[5]; [12]", "value": "Bac"}, {"measurement": "growth in P (peptone broth)", "setting": "[5]; [12]", "value": "Bac"}, {"measurement": "growth in PM (peptonemethylamine broth)", "setting": "[5]; [12]", "value": "Bac"}, {"measurement": "growth in TM (test medium)", "setting": "[5]; [12]", "value": "Bac"}, {"measurement": "growth in M (malt broth)", "setting": "[5]; [13]", "value": "Bac"}, {"measurement": "growth in P (peptone broth)", "setting": "[5]; [13]", "value": "Bac"}, {"measurement": "growth in PM (peptonemethylamine broth)", "setting": "[5]; [13]", "value": "Bac"}, {"measurement": "growth in TM (test medium)", "setting": "[5]; [13]", "value": "Bac"}, {"measurement": "growth in M (malt broth)", "setting": "[5]; [14]", "value": "Bac"}, {"measurement": "growth in P (peptone broth)", "setting": "[5]; [14]", "value": "Bac"}, {"measurement": "growth in PM (peptonemethylamine broth)", "setting": "[5]; [14]", "value": "Bac"}, {"measurement": "growth in TM (test medium)", "setting": "[5]; [14]", "value": "Bac"}, {"measurement": "growth in M (malt broth)", "setting": "[5]; [15]", "value": "Bac^3"}, {"measurement": "growth in PM (peptonemethylamine broth)", "setting": "[5]; [15]", "value": "Bac^2"}, {"measurement": "growth in TM (test medium)", "setting": "[5]; [15]", "value": "Bac^3"}, {"measurement": "growth in BP", "setting": "[5]; [16]", "value": "Bac"}, {"measurement": "growth in M (malt broth)", "setting": "[5]; [16]", "value": "Bac"}, {"measurement": "growth in TM (test medium)", "setting": "[5]; [16]", "value": "Bac"}, {"measurement": "growth in BP", "setting": "[5]; [17]", "value": "Bac"}, {"measurement": "growth in M (malt broth)", "setting": "[5]; [17]", "value": "Bac"}, {"measurement": "growth in PM (peptonemethylamine broth)", "setting": "[5]; [17]", "value": "Bac"}, {"measurement": "growth in TM (test medium)", "setting": "[5]; [17]", "value": "Bac"}, {"measurement": "growth in Blk Sea (black sea medium, brackish at 16 psu)", "setting": "[6]", "value": "PHY^6"}, {"measurement": "growth in DYV (DY-V medium, freshwater)", "setting": "[6]", "value": "PHY^3"}, {"measurement": "growth in K (K medium, oceanic)", "setting": "[6]", "value": "PHY^4"}, {"measurement": "growth in L1 + NH4 (coastal)", "setting": "[6]", "value": "PHY^5"}, {"measurement": "growth in L1/24 (coastal at 24 psu)", "setting": "[6]", "value": "PHY^7"}, {"measurement": "growth in Prov (coastal enriched with soil extract)", "setting": "[6]", "value": "PHY^8"}, {"measurement": "contact dosage needed to kill invertebrates", "setting": "[7]", "value": "~0.3", "unit": "mg/L"}, {"measurement": "ozone concentration killing Cryptosporidium oocysts", "setting": "[8]", "value": "about 1.5 mg/L"}]}]}
